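All cell lines were grown in 96-well plates and treated with compound for 48 hours. Here, GI50 denotes the concentration required for 50% inhibition of growth.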 Activity calls are given as the source filed them. No stated cut-off is given here; in the data, active = GI50 up to about 1.1 µM and inactive = higher.
Columns and labels:
Assay in all cases: NCI tumour cell line growth inhibition, 48 h
[1] = system: HOP-62
[2] = system: SW-620
[3] = system: OVCAR-5
[4] = system: MDA-MB-435
[5] = system: OVCAR-4
[6] = system: 786-0
[7] = system: SF-295
[8] = system: KM12
[9] = system: EKVX
[10] = system: NCI-H460
[11] = system: SK-MEL-28
[12] = system: RPMI-8226
[13] = system: MDA-MB-231
[14] = system: UACC-62
[15] = system: COLO 205
[16] = system: RXF 393
[17] = system: NCI-H522
[18] = system: Malme-3M
[19] = system: DU-145
[20] = system: CCRF-CEM

Measured: GI50

O=C(O)CCc1nc(-c2ccccc2-n2cccc2)no1
inactive: [1] > 100 µM | [2] > 100 µM | [3] > 100 µM | [4] 16.6 µM | [5] 11.8 µM | [6] > 100 µM | [7] 49.9 µM | [8] 5.89 µM | [9] > 100 µM | [10] 73.6 µM | [11] > 100 µM | [12] > 100 µM | [13] > 100 µM | [14] > 100 µM | [15] > 100 µM | [16] > 100 µM | [17] 31 µM | [18] 52.6 µM | [19] > 100 µM

C=C(Br)C/N=C/N(C)C
inactive: [1] > 100 µM | [3] > 100 µM | [4] > 100 µM | [5] > 100 µM | [20] > 100 µM | [6] > 100 µM | [7] > 100 µM | [9] > 100 µM | [11] > 100 µM | [12] > 100 µM | [13] > 100 µM | [14] > 100 µM | [15] > 100 µM | [16] > 100 µM | [17] > 100 µM | [18] > 100 µM | [19] > 100 µM

CSCCCNC(=O)[C@H](CSC)NC(=O)c1csc(CCNC(=O)[C@@H](NSc2ccccc2[N+](=O)[O-])C(C)O)n1 (stereo partly specified)
inactive: [1] > 100 µM | [2] > 100 µM | [3] > 100 µM | [4] > 100 µM | [5] > 100 µM | [20] > 100 µM | [6] > 100 µM | [7] > 100 µM | [8] > 100 µM | [9] > 100 µM | [10] > 100 µM | [11] > 100 µM | [13] > 100 µM | [14] > 100 µM | [15] > 100 µM | [16] > 100 µM | [17] > 100 µM | [18] > 100 µM | [19] > 100 µM

CC1=NNC(=O)C1C1CC(c2c[nH]c3ccccc23)=NNC1=O (stereo unspecified)
inactive: [1] > 100 µM | [2] > 100 µM | [3] > 100 µM | [4] > 100 µM | [20] > 100 µM | [6] > 100 µM | [7] > 100 µM | [8] 62.7 µM | [9] 11.9 µM | [10] > 100 µM | [11] > 100 µM | [12] > 100 µM | [13] > 100 µM | [14] > 100 µM | [15] > 100 µM | [16] > 100 µM | [17] > 100 µM | [18] > 100 µM | [19] > 100 µM

Cc1cc(Cl)nc(Nc2nc3ccccc3[nH]2)n1
inactive: [1] > 100 µM | [2] > 100 µM | [3] > 100 µM | [4] > 100 µM | [5] > 100 µM | [20] > 100 µM | [6] > 100 µM | [7] > 100 µM | [10] > 100 µM | [11] > 100 µM | [13] > 100 µM | [14] > 100 µM | [15] > 100 µM | [16] > 100 µM | [17] 2.96 µM | [18] > 100 µM | [19] > 100 µM

NNc1nc2ccccc2s1
inactive: [2] > 100 µM | [3] > 100 µM | [4] > 100 µM | [5] > 100 µM | [20] 35.1 µM | [6] > 100 µM | [8] > 100 µM | [9] > 100 µM | [10] > 100 µM | [11] > 100 µM | [12] 72.8 µM | [13] > 100 µM | [14] > 100 µM | [15] > 100 µM | [16] > 100 µM | [17] > 100 µM | [18] > 100 µM | [19] > 100 µM

CCCCC1(NN=C2CCCCC2)C(=O)N(c2ccccc2)N(c2ccccc2)C1=O
inactive: [1] > 100 µM | [2] > 100 µM | [4] > 100 µM | [5] > 100 µM | [20] 21.6 µM | [6] > 100 µM | [7] > 100 µM | [8] > 100 µM | [9] > 100 µM | [10] > 100 µM | [11] > 100 µM | [12] 62.1 µM | [13] > 100 µM | [14] > 100 µM | [15] > 100 µM | [16] > 100 µM | [17] 83 µM | [19] > 100 µM

CC(C)(C)OC(=O)CN1C(=O)CC1CC(=O)c1ccccc1 (stereo unspecified)
inactive: [1] 17 µM | [2] 3.58 µM | [3] 17.5 µM | [4] 18.9 µM | [5] 30.5 µM | [6] 17.5 µM | [7] 26.9 µM | [8] 20 µM | [9] 17.2 µM | [10] 26.7 µM | [11] 19.5 µM | [12] 3.05 µM | [13] 17.2 µM | [14] 19.3 µM | [15] 26.6 µM | [16] 18.5 µM | [17] 15.5 µM | [18] 17.3 µM | [19] 17.9 µM

Source: ChEMBL document CHEMBL1201862, “PubChem BioAssay data set” (2004)
